Values joined by “and” are separate entries in the source; they are usually repeats but may differ in a detail not shown here. Identical values can stand only once.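 Grown in 96-well plates, cells were treated for 48 hours with each compound at five concentrations. Insufficient inhibition: endpoint recorded as highest concentration tested. The concentration for 50% growth inhibition is given as GI50. Definition used: TGI = concentration required for complete inhibition of growth.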
Tests used:
Assay in all cases: DTP human tumour cell line panel, 48 h
NCI-H460 lung = test system: NCI-H460 lung
SR leukemia = test system: SR leukemia
A549 NSCLC = test system: A549 NSCLC
IGROV1 ovarian = test system: IGROV1 ovarian
OVCAR-3 ovarian = test system: OVCAR-3 ovarian
CCRF-CEM leukemia = test system: CCRF-CEM leukemia
SK-MEL-5 melanoma = test system: SK-MEL-5 melanoma
MDA-MB-435 = test system: MDA-MB-435
SF-268 CNS = test system: SF-268 CNS
SF-295 CNS = test system: SF-295 CNS

| SMILES | GI50 (NCI-H460 lung) | TGI (NCI-H460 lung) | GI50 (SR leukemia) | TGI (SR leukemia) | GI50 (A549 NSCLC) | TGI (A549 NSCLC) | GI50 (IGROV1 ovarian) | TGI (IGROV1 ovarian) | GI50 (OVCAR-3 ovarian) | TGI (OVCAR-3 ovarian) | GI50 (CCRF-CEM leukemia) | TGI (CCRF-CEM leukemia) | GI50 (SK-MEL-5 melanoma) | TGI (SK-MEL-5 melanoma) | GI50 (MDA-MB-435) | TGI (MDA-MB-435) | GI50 (SF-268 CNS) | TGI (SF-268 CNS) | GI50 (SF-295 CNS) | TGI (SF-295 CNS) |
| --- | --- | --- | --- | --- | --- | --- | --- | --- | --- | --- | --- | --- | --- | --- | --- | --- | --- | --- | --- | --- |
| C=C(CN1CCc2ccccc2C1)c1ccc(C(=O)Nc2cccc(N)c2)cc1 | 19.9 µM | 50 µM | 11.7 µM | 54.8 µM | 20.5 µM | 61.2 µM | 16 µM | 47.2 µM | 13.6 µM | 35.3 µM | 16.4 µM | > 100 µM | 13.6 µM | 28.3 µM | 14 µM | 31.9 µM | 19 µM | 45.9 µM | 20 µM | 51.2 µM |
| CN1CC[C@H](N(C)C(=O)N2CC(c3cc(F)ccc3F)=C[C@@]2(CO)c2ccccc2)[C@H](F)C1 | 0.0308 µM | > 100 µM | 0.00871 µM | 40.5 µM | 0.0383 µM | > 100 µM | – | > 100 µM | 0.0196 µM | – | 0.017 µM | > 100 µM | 0.00471 µM | 14.1 µM | 0.00258 µM | 0.00772 µM | 0.0279 µM | > 100 µM | 0.0148 µM | 18.2 µM |
| O=C(CNC(=O)c1cccc2ccccc12)Nc1ccccc1Oc1ccc(O)cc1 | 0.969 µM | > 25 µM | 0.459 µM | > 25 µM | 1.49 µM | > 25 µM | 2.33 µM | > 25 µM | 0.744 µM | > 25 µM | 0.94 µM | > 25 µM | 0.846 µM | > 25 µM | 0.161 µM | 0.687 µM | 3.31 µM | > 25 µM | 0.62 µM | > 25 µM |
| COc1cc2nc(NC3CCC3)nc(NC3CCN(C(C)C)CC3)c2cc1OC | 3.36 µM | 12.1 µM | 0.631 µM | 3.33 µM | 3.08 µM | 14.5 µM | 7.08 µM | 24 µM | 4.23 µM | 16.6 µM | 2.21 µM | 5.11 µM | 1.75 µM | 3.15 µM | 1.77 µM | 3.33 µM | 2.5 µM | 8.88 µM | 1.87 µM | 3.67 µM |
| CCOc1ccc(-c2nc3ccc(-c4nc5ccc(N6CCN(C)CC6)cc5[nH]4)cc3[nH]2)cc1OCC | 3.14 µM | 10.4 µM | 0.678 µM | 7.78 µM | 8.34 µM | 28.5 µM | 1.94 µM | 6.2 µM | 0.648 µM | 2.63 µM | 2.04 µM | 22.8 µM | 1.29 µM | 3.71 µM | 1.01 µM | 2.38 µM | 1.85 µM | 6.9 µM | 1.98 µM | 16.1 µM |
| CC(C)OC(=O)OCOP(=O)(OCOC(=O)OC(C)C)C1CCCN(O)C1=O (stereo not drawn) | 1.14 µM | > 100 µM | 1.25 µM | > 100 µM | 4.01 µM | > 100 µM | 0.565 µM | 12.6 µM | 1.47 µM | > 100 µM | 0.446 µM | > 100 µM | 1.3 µM | 7.3 µM | 5.29 µM | > 100 µM | 3.07 µM | > 100 µM | 7.14 µM | > 100 µM |
| CC(=O)Nc1ccc(S(=O)(=O)N2C(=O)CCC2C(=O)Nc2ccccc2)cc1 (stereo not drawn) | 0.359 µM | 15.3 µM | 0.913 µM | 12.1 µM | 0.721 µM | 19.2 µM | 2.32 µM | 26.9 µM | 1.75 µM | 11.8 µM | 0.433 µM | 14.2 µM | 0.367 µM | 5.31 µM | 0.582 µM | 17.3 µM | 3.82 µM | 23.3 µM | 0.33 µM | 3.41 µM |
| Nc1c2ccccc2nc2ccccc12 | 1.44 µM and 2.5 µM | 5.17 µM and 6.88 µM | 0.855 µM and 2.78 µM | 6.84 µM and 16.6 µM | 1.52 µM and 2.87 µM | 3.94 µM and 8.81 µM | 2.12 µM and 3.34 µM | 6.18 µM and 14 µM | 2.2 µM and 2.91 µM | 6.77 µM and 8.91 µM | 1.69 µM and 2.3 µM | 7.27 µM and 65.4 µM | 1.62 µM and 2.12 µM | 2.99 µM and 4.46 µM | 2.23 µM and 3.46 µM | 6.32 µM and 13.7 µM | 1.63 µM and 3.47 µM | 4.45 µM and 19.7 µM | 1.61 µM and 3.08 µM | 9.52 µM and 17.5 µM |
| O=C(c1ccco1)c1c(C(F)(F)F)n([O-])c2cc(Cl)c(Cl)cc2[n+]1=O | 0.121 µM | 0.361 µM | 0.0497 µM | 50 µM | 1.04 µM | 2.55 µM | 0.113 µM | 2.53 µM | 0.0798 µM | 0.316 µM | 0.384 µM | 9.5 µM | 0.727 µM | 1.45 µM | 0.877 µM | 1.81 µM | 0.236 µM | 0.774 µM | 0.247 µM | 0.825 µM |
| CC(C)c1c(C(=O)Nc2ccccc2)c(-c2ccccc2)c(-c2ccc(F)cc2)n1CC[C@@H](O)C[C@@H](O)CC(=O)O | 41.3 µM | > 100 µM | 4.35 µM | 39 µM | 56.5 µM | > 100 µM | 22.2 µM | > 100 µM | 33.1 µM | > 100 µM | 21.4 µM | > 100 µM | 9.95 µM | 25.4 µM | 15.1 µM | > 100 µM | 6.64 µM | > 100 µM | 6.74 µM | > 60.6 µM |
| Nc1ncnc2c1ncn2C1SC(CO)C(O)C1O (stereo not drawn) | 7.88 µM | 37.9 µM | 12.5 µM | 45.2 µM | 26.6 µM | 73.4 µM | > 100 µM | > 100 µM | 24.5 µM | 58.3 µM | > 100 µM | > 100 µM | 74.4 µM | > 100 µM | 18.1 µM | 50.2 µM | 27.1 µM | 96.6 µM | 20.1 µM | 52.6 µM |
| CC/C(=C\c1ccc(N(C)C)cc1)c1ccncc1 | 3.79 µM | > 100 µM | 3.24 µM | 30.1 µM | 5.5 µM | > 100 µM | 5.47 µM | > 100 µM | 4.13 µM | 29.7 µM | 8.13 µM | > 100 µM | 3.43 µM | 16.4 µM | 1.68 µM | 7.51 µM | 11.2 µM | > 100 µM | 3.44 µM | 21.1 µM |

— PubChem BioAssay (NCI)
